Reference: PMC3399817 (PLoS ONE, 2012)

Experiments:
Assay type in all cases: cell-based
HKe-3 (K-RAS^−/+) = assay: Cell viability (Syto60); conditions: 72 hours; for cooperation with / sensitization to AZ-628 (cell viability): K-RAS wild-type cells (HKe-3), 1 µM AZ-628
Experimental: (§1) All colon cancer cell lines were maintained in DMEM supplemented with penicillin (100 units/mL), streptomycin (100 μg/mL), and 10% fetal bovine serum (FBS). The rectal cancer cell line (Car1) was maintained in DMEM/F12 supplemented with penicillin (100 units/mL)/streptomycin (50 μg/mL), and 5% FBS. […] The target sequences for knockdowns can be found in Table S2. In drug treatment experiments, cells were plated for 24 hours prior to exposure to drug. AZ-628 was obtained from AstraZeneca. CI-1040 was obtained from Pfizer. R406 was synthesized in the Gray laboratory. BAY61-3606 and IKK VII were purchased from EMD Biosciences. BAY derivatives were synthesized for this study.
(§2) Cell cycle analysis was performed via FACS-based propidium iodide quantification, using standard methods. To measure cell viability, cells were grown in 96-well plates in the presence or absence of drug for 72 hours, fixed with 4% paraformaldehyde, and then stained with Syto60 (Invitrogen). Plates were imaged and quantified using the LiCor Odyssey system (LiCor).

DKs-8 = assay: Cell viability (Syto60); conditions: DKs-8, 72 hours, 1 μM
Experimental: as §1, §2

DLD-1 cells = assay: Cell viability (Syto60); conditions: DLD-1, 72 hours, 1 μM
Experimental: as §1, §2

[1] = test system: phospho-MEK1 (Ser217/Ser221) and phospho-ERK1/2 (Thr202/Tyr204, Thr185/Tyr187); assay: Bio-Plex phospho-MEK1 and phospho-ERK1/2; conditions: 45 minute exposure, 1 µM, K-RAS wild-type and mutant cells
Experimental: (§3) The Bio-Plex assay system was used to measure signaling in drug-treated cells. Briefly, cells were incubated in the presence of drug for various amounts of time and then lysed in Bio-Rad cell lysis buffer (Bio-Rad). Protein quantification was performed using BCA assay (Pierce) and 5 µg of protein from each sample was used for Bio-Plex analysis. Phospho-signaling assays were performed using available phospho-signaling assay kits and quantified on a Bio-Plex 200 system (Bio-Rad): p-Iκβα (Ser32/Ser36), p-JNK (Thr183/Tyr185), p-MEK1 (Ser217/Ser221), p-ERK1/2 (Thr202/Tyr204, Thr185/Tyr187), p-p90RSK (Thr359/Ser363), p-p38 (Thr180/Tyr182), p-c-JUN (Ser63), p-ATF2 (Thr71), p-AKT (Ser473), p-S6 (Ser235/Ser236), p-STAT3 (Ser727), p-STAT3 (Tyr705), and p-GSK3α/β (Ser21/Ser9). Bio-Plex assay for total MEK1 was also performed as a loading control.

[2] = test system: phospho-JNK (Thr183/Tyr185); assay: Bio-Plex phospho-JNK; conditions: HKe-3 cells, 1 µM
Experimental: as §3

HCT-116 (K-RAS^G13D/+) = assay: Cell viability (Syto60); conditions: 72 hours, HCT-116 compared to HKe-3, normalized to DMSO
Experimental: as §1, §2

[3] = test system: phospho-Iκβα (Ser32/Ser36); assay: Bio-Plex phospho-Iκβα; conditions: HKe-3 cells, 1 µM
Experimental: as §3

HT-29 (B-RAF^V600E/+) = assay: Cell cycle analysis (propidium iodide FACS); conditions: cell lines that express mutant B-RAF (HT-29)
Experimental: as §2

[4] = test system: colorectal cancer cells expressing mutant B-RAF (V600E) (HT-29, RKO); assay: Cell viability (Syto60); conditions: HT-29 and RKO, 72 hours
Experimental: as §1, §2

Oc1c2ccccc2c2c3c(cccc13)N=N2 [SP600125]
cooperation with / sensitization to AZ-628 (cell viability) (HKe-3 (K-RAS^−/+)): did not affect AZ-628 sensitivity

O=C(c1ccc(Nc2nccc(-c3cc4ccccc4s3)n2)cc1)N1CCC(N2CCCC2)CC1 [IKK inhibitor VII]
sensitization to AZ-628 (cell viability) (HKe-3 (K-RAS^−/+); HKe-3 cells with MAP4K2 knockdown, 1 µM + 1 µM AZ-628): abrogated the ability of IKK inhibitor VII to sensitize | cooperation with / sensitization to AZ-628 (cell viability) (HKe-3 (K-RAS^−/+)): enhanced the effect of AZ-628

COc1cc(Nc2ncc(F)c(Nc3ccc4c(n3)NC(=O)C(C)(C)O4)n2)cc(OC)c1OC [R406]
sensitivity (cell viability) (DKs-8): did not exhibit sensitivity | sensitivity (cell viability) (DLD-1 cells): did not exhibit sensitivity

Cc1ccc(NC(=O)c2cccc(C(C)(C)C#N)c2)cc1Nc1ccc2ncn(C)c(=O)c2c1 [AZ-628]
MEK and ERK phosphorylation [1]: suppressed MEK and ERK phosphorylation | JNK activation [2]: strongly activated | sensitivity of cells expressing mutant K-RAS (cell viability) (HCT-116 (K-RAS^G13D/+)): relatively sensitive | Iκβα phosphorylation [3]: further induced

O=C(NOCC1CC1)c1ccc(F)c(F)c1Nc1ccc(I)cc1Cl [CI-1040]
cell cycle effect (HT-29 (B-RAF^V600E/+)): induced G1 arrest | sensitivity of cells expressing mutant K-RAS (cell viability) (HCT-116 (K-RAS^G13D/+)): insensitive | cell viability, combination of BAY61-3606 and CI-1040 [4]: cooperated to produce an enhanced response | sensitivity of cells expressing mutant B-RAF (cell viability) ([4]; single agent): sensitive
